# Source: publication PMC3579193, “Elucidation of relaxin-3 binding interactions in the extracellular loops of RXFP3” (Frontiers in Endocrinology, 2013)
# Residue numbers refer to the chain shown, from its start.
# Legend:
# HA-RXFP3 = biological target: T1, HA-RXFP3 (Homo sapiens, UniProt Q9NSD7); assay: Competition binding with Eu-H3/I5, HA-RXFP3; settings: HA-RXFP3 vs wild-type RXFP3, competition binding
# T1 construct: expressed in transfected cells; host or cells: HEK-293T
# T1 sequence (Q9NSD7 2-469 limits assumed): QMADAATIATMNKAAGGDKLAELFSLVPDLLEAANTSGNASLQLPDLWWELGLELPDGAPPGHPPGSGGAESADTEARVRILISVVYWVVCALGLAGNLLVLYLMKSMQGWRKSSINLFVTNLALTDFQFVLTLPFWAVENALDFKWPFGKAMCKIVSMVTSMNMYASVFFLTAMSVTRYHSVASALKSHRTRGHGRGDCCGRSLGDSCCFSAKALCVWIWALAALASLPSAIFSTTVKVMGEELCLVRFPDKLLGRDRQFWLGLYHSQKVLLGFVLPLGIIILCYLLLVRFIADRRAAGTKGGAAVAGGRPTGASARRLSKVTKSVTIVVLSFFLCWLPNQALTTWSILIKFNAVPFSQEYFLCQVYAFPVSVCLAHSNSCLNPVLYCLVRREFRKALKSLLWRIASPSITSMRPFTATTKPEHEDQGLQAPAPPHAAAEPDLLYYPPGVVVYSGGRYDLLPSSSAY
# Protocol: HEK-293T cells were transfected in 96 well optiplates (Perkin Elmer) with plasmids encoding the constructs of interest and Eu-H3/I5 binding assays conducted as described previously ([Luo et al., 2010]; [Haugaard-Kedstrom et al., 2011]). […] Binding data are expressed as mean ± standard error of mean (SEM) of % specific binding of triplicate measurements pooled from at least three independent experiments. Data were analyzed using Graphpad PRISM (Graphpad Inc.) and a non-linear regression one-site binding model was used to plot curves and calculate pIC50 values. All the RXFP3 constructs used in this study contained an N-terminal HA epitope. The HA epitope was detected using a purified mouse monoclonal anti-HA antibody [HA.11(16B12), Covance] and a Alexafluor488-labeled goat anti mouse IgG (Invitrogen) in cell surface expression assays that were performed in 24 well plates as previously described ([Yan et al., 2008]). […] Specific binding data for RXFP3 mutants was expressed as mean ± SEM of % specific binding/%HA-RXFP3 cell surface expression of triplicate measurements pooled from at least three independent experiments. Pooled data were analyzed using one-way ANOVA coupled to Newman–Keuls multiple comparison test for multiple group comparison.
# HA-RXFP3 D75A = biological target: T2, HA-RXFP3 D75A (Homo sapiens, UniProt Q9NSD7, D75A); assay: Competition binding with Eu-H3/I5, HA-RXFP3 D75A
# T2 construct: expressed in transfected cells; host or cells: HEK-293T
# T2 sequence (Q9NSD7 2-469 D75A limits assumed): T1 sequence (Q9NSD7 2-469 limits assumed) with D74A
# Protocol: (§1) PCR reactions and cloning were undertaken as previously described ([Scott et al., 2006], [2012]).
# The same protocol was used to prepare DNA templates of all Glu/Asp to Ala mutants, entailing a single codon change except for D47A/E51A, E55A/D58A, and E141A/D145A which required a double codon change both to Ala. The forward and reverse primers for all mutants are listed in Table 1 and mutagenesis reactions on pcDNA3.1zeo (+)-HA-RXFP3 were performed as previously described ([Scott et al., 2006]; [Yan et al., 2008]). […]
# HEK-293T cells were transfected in 96 well optiplates (Perkin Elmer) with plasmids encoding the constructs of interest and Eu-H3/I5 binding assays conducted as described previously ([Luo et al., 2010]; [Haugaard-Kedstrom et al., 2011]). […] Binding data are expressed as mean ± standard error of mean (SEM) of % specific binding of triplicate measurements pooled from at least three independent experiments. Data were analyzed using Graphpad PRISM (Graphpad Inc.) and a non-linear regression one-site binding model was used to plot curves and calculate pIC50 values. […] The HA epitope was detected using a purified mouse monoclonal anti-HA antibody [HA.11(16B12), Covance] and a Alexafluor488-labeled goat anti mouse IgG (Invitrogen) in cell surface expression assays that were performed in 24 well plates as previously described ([Yan et al., 2008]). […]
# HA-RXFP3 ∆1–33 = biological target: T3, HA-RXFP3 ∆1–33 (Homo sapiens, UniProt Q9NSD7); assay: Competition binding with Eu-H3/I5, HA-RXFP3 ∆1–33
# T3 construct: expressed in transfected cells; host or cells: HEK-293T
# T3 sequence (Q9NSD7 34-469): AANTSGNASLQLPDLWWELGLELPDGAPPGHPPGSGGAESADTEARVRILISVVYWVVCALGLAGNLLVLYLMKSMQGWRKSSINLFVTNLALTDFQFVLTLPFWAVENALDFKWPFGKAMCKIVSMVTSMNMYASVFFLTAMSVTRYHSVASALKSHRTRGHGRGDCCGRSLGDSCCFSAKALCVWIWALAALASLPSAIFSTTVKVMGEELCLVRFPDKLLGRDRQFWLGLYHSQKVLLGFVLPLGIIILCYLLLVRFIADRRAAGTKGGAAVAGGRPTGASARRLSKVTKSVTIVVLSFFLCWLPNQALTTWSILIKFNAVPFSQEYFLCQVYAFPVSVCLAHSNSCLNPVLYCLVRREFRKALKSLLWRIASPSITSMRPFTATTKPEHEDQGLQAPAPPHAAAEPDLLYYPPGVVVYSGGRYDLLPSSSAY
# Text: as §1
# A pcDNA3.1zeo (+) vector with a start codon and HA tag (pcDNA3.1zeo (+)-HA) was produced by ligating a double stranded primer containing a BamHI site at the 5′ end followed by a start codon and HA tag and then a EcoRV blunt site at the 3′ end (Table 2) into a pcDNA3.1zeo (+) vector cut with BamHI and EcoRV. […]
# HEK-293T cells were transfected in 96 well optiplates (Perkin Elmer) with plasmids encoding the constructs of interest and Eu-H3/I5 binding assays conducted as described previously ([Luo et al., 2010]; [Haugaard-Kedstrom et al., 2011]). […] Binding data are expressed as mean ± standard error of mean (SEM) of % specific binding of triplicate measurements pooled from at least three independent experiments. Data were analyzed using Graphpad PRISM (Graphpad Inc.) and a non-linear regression one-site binding model was used to plot curves and calculate pIC50 values. […] The HA epitope was detected using a purified mouse monoclonal anti-HA antibody [HA.11(16B12), Covance] and a Alexafluor488-labeled goat anti mouse IgG (Invitrogen) in cell surface expression assays that were performed in 24 well plates as previously described ([Yan et al., 2008]). […] Pooled data were analyzed using one-way ANOVA coupled to Newman–Keuls multiple comparison test for multiple group comparison.
smiles,measurement,setting,value
CC[C@H](C)[C@@H]1NC(=O)[C@H](Cc2ccccc2)NC(=O)[C@H](CCC(=O)O)NC(=O)[C@H](CCCNC(=N)N)NC(=O)CNC(=O)[C@@H](NC(=O)[C@H](CC(C)C)NC(=O)[C@H](CCCNC(=N)N)NC(=O)[C@@H](NC(=O)CNC(=O)[C@H](Cc2ccc(O)cc2)NC(=O)[C@@H]2CCCN2C(=O)[C@H](C)NC(=O)[C@H](C)NC(=O)[C@@H](N)CCCNC(=N)N)C(C)C)CSSC[C@@H]2NC(=O)[C@@H](NC(=O)[C@H](CO)NC(=O)[C@H](CO)NC(=O)[C@H](CO)NC(=O)[C@H](CC(C)C)NC(=O)CNC(=O)[C@H](C)NC(=O)[C@H](CC(C)C)NC(=O)[C@@H](NC(=O)[C@@H](N)CC(=O)O)C(C)C)CSSC[C@H](NC(=O)CNC(=O)[C@H](Cc3c[nH]c4ccccc34)NC(=O)[C@H](CCCCN)NC2=O)C(=O)N[C@@H](CO)C(=O)N[C@@H](CCCCN)C(=O)N[C@@H](CO)C(=O)N[C@@H](CCC(=O)O)C(=O)N[C@@H]([C@@H](C)CC)C(=O)N[C@@H](CO)C(=O)N[C@@H](CO)C(=O)N[C@@H](CC(C)C)C(=O)N[C@H](C(=O)O)CSSC[C@@H](C(=O)NCC(=O)NCC(=O)N[C@@H](CO)C(=O)N[C@@H](CCCNC(=N)N)C(=O)N[C@@H](Cc2c[nH]c3ccccc23)C(=O)O)NC(=O)[C@H]([C@@H](C)O)NC(=O)[C@H](Cc2ccccc2)NC(=O)[C@H]([C@@H](C)CC)NC(=O)[C@H](C(C)C)NC(=O)[C@H](C)NC(=O)[C@H](CCCNC(=N)N)NC1=O [H3 relaxin],binding affinity compared with wild-type RXFP3,HA-RXFP3,no difference in the binding affinity
same,IC50,HA-RXFP3 D75A,20 nM
same,affinity compared with HA-RXFP3,HA-RXFP3 D75A; competition binding,no significant difference in the affinity
same,IC50,HA-RXFP3 ∆1–33,14.8 nM
same,effect on affinity of truncation,"HA-RXFP3 ∆1–33; vs HA-RXFP3, competition binding",no significant effect on the affinity
